Reference: PubChem BioAssay AID248 (DTP/NCI, 2004)
Toxic doses and inconclusive results are not listed. Cut-off read from the data, not from the text of the source: active = T/C of 150% or more; inactive = T/C below 125%. Square brackets hold non-standard residues; d marks the D form. Peptide text beside a SMILES is read from it. * marks the point of attachment. ξ: configuration not given here. Octanoyl = CCCCCCCC(=O)*; ξP = O=C(O)C1CCCN1

System: L1210 leukemia ip in BDF1 mice, survival T/C
Experiment: NCI In Vivo Anticancer Drug Screen. Data for tumor model L1210 Leukemia (intraperitoneal) in B6D2F1 (BDF1) mice
Settings: endpoint: mean survival time, higher = longer survival
Outline: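 Ratio derived from survival: compound-dosed mice over vehicle-dosed mice, all bearing a transplantable tumor.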

[1] = dose: 100.0 mg/kg/injection, schedule: Q01DX009 (ip), vehicle: saline
[2] = dose: 100.0 mg/kg/injection, schedule: Q04DX003 (ip), vehicle: saline
[3] = dose: 200.0 mg/kg/injection, schedule: Q01DX009 (ip), vehicle: saline
[4] = dose: 400.0 mg/kg/injection, schedule: Q01DX009 (ip), vehicle: saline
[5] = dose: 100.0 mg/kg/injection, schedule: Q01DX001 (ip), vehicle: Klucel (hydroxypropylcellulose) (HPC)
[6] = dose: 100.0 mg/kg/injection, schedule: Q01DX009 (ip), vehicle: Klucel (hydroxypropylcellulose) (HPC)
[7] = dose: 100.0 mg/kg/injection, schedule: Q04DX003 (ip), vehicle: Klucel (hydroxypropylcellulose) (HPC)
[8] = dose: 200.0 mg/kg/injection, schedule: Q01DX001 (ip), vehicle: Klucel (hydroxypropylcellulose) (HPC)
[9] = dose: 200.0 mg/kg/injection, schedule: Q04DX003 (ip), vehicle: Klucel (hydroxypropylcellulose) (HPC)
[10] = dose: 400.0 mg/kg/injection, schedule: Q01DX001 (ip), vehicle: Klucel (hydroxypropylcellulose) (HPC)
[11] = dose: 100.0 mg/kg/injection, schedule: Q04DX003 (ip), vehicle: saline with Tween-80

Measured: T/C

NCCCC1C2CCC(C2)C1CN (configuration not stated)
inactive: dose: 100.0 mg/kg/injection, schedule: Q04DX002 (ip), vehicle: alcohol 98 % of control

CCOC(=O)C(O)(CC)CC
inactive: [1] 96 % of control | [2] 93 % of control | [3] 101 % of control | dose: 200.0 mg/kg/injection, schedule: Q04DX003 (ip), vehicle: saline 93 % of control | [4] 102 % of control | dose: 400.0 mg/kg/injection, schedule: Q04DX003 (ip), vehicle: saline 95 % of control

CC(C)C1(C)C(=O)N(C)C(=O)N1Br (configuration not stated)
inactive: dose: 50.0 mg/kg/injection, schedule: Q01DX009 (ip), vehicle: Klucel (hydroxypropylcellulose) (HPC) 102 % of control | dose: 50.0 mg/kg/injection, schedule: Q04DX003 (ip), vehicle: Klucel (hydroxypropylcellulose) (HPC) 100 % of control | [5] 107 % of control | [6] 96 % of control | [7] 97 % of control | [8] 98 % of control | [9] 105 % of control | [10] 98 % of control

COC(=O)C1=CC2C3C=C(C(=O)OC)C(C3)C2C1 (configuration not stated)
inactive: dose: 75.0 mg/kg/injection, schedule: Q01DX001 (ip), vehicle: Klucel (hydroxypropylcellulose) (HPC) 100 % of control | dose: 150.0 mg/kg/injection, schedule: Q01DX001 (ip), vehicle: Klucel (hydroxypropylcellulose) (HPC) 103 % of control | dose: 300.0 mg/kg/injection, schedule: Q01DX001 (ip), vehicle: Klucel (hydroxypropylcellulose) (HPC) 98 % of control

CC1CN1CC1CO1 (configuration not stated)
inactive: dose: 0.5 mg/kg/injection, schedule: Q01DX001 (ip), vehicle: saline 98 % of control | dose: 0.5 mg/kg/injection, schedule: Q01DX009 (ip), vehicle: acetone 97 % of control | dose: 0.5 mg/kg/injection, schedule: Q04DX003 (ip), vehicle: acetone 104 % of control | dose: 1.0 mg/kg/injection, schedule: Q01DX001 (ip), vehicle: saline 95 % of control | dose: 1.0 mg/kg/injection, schedule: Q01DX009 (ip), vehicle: acetone 96 % of control | dose: 1.0 mg/kg/injection, schedule: Q04DX003 (ip), vehicle: acetone 101 % of control | dose: 2.0 mg/kg/injection, schedule: Q01DX001 (ip), vehicle: saline 98 % of control | dose: 2.0 mg/kg/injection, schedule: Q01DX009 (ip), vehicle: acetone 100 % of control | dose: 2.0 mg/kg/injection, schedule: Q04DX003 (ip), vehicle: acetone 104 % of control | dose: 2.97 mg/kg/injection, schedule: Q01DX009 (ip), vehicle: acetone 97 % of control | dose: 4.5 mg/kg/injection, schedule: Q01DX009 (ip), vehicle: acetone 97 % of control | dose: 6.75 mg/kg/injection, schedule: Q01DX009 (ip), vehicle: acetone 115 % of control | dose: 9.9 mg/kg/injection, schedule: Q01DX009 (ip), vehicle: acetone 102 % of control | dose: 15.0 mg/kg/injection, schedule: Q01DX009 (ip), vehicle: acetone 100 % of control | dose: 22.5 mg/kg/injection, schedule: Q01DX009 (ip), vehicle: acetone 94 % of control

CCCCCCCC(=O)N1CCCC1C(=O)NCC(=O)NCC(=O)O (stereo not drawn) (Octanoyl-[ξP]-Gly-Gly-OH)
inactive: [5] 115 % of control | [8] 95 % of control | [10] 95 % of control

CCC(C)(OC(=O)c1ccc([N+](=O)[O-])cc1)C(C)C (configuration not stated)
inactive: dose: 75.0 mg/kg/injection, schedule: Q04DX002 (ip), vehicle: saline with Tween-80 95 % of control | dose: 150.0 mg/kg/injection, schedule: Q04DX002 (ip), vehicle: saline with Tween-80 91 % of control

CCOc1ccc(/C=N/N=C(N)N)cc1OCC
inactive: dose: 62.5 mg/kg/injection, schedule: Q01DX Z (oral), vehicle: saline 110 % of control | dose: 125.0 mg/kg/injection, schedule: Q01DX Z (oral), vehicle: saline 114 % of control | dose: 250.0 mg/kg/injection, schedule: Q01DX Z (oral), vehicle: saline 91 % of control

S=c1nc[nH]c2c1CP(c1ccccc1)CC2 (configuration not stated)
inactive: [11] 110 % of control | dose: 200.0 mg/kg/injection, schedule: Q04DX003 (ip), vehicle: saline with Tween-80 100 % of control | dose: 400.0 mg/kg/injection, schedule: Q04DX003 (ip), vehicle: saline with Tween-80 101 % of control

Nc1c(Cl)ncnc1Nc1cccc(C(F)(F)F)c1
inactive: [7] 92 % of control | [9] 97 % of control | dose: 400.0 mg/kg/injection, schedule: Q04DX003 (ip), vehicle: Klucel (hydroxypropylcellulose) (HPC) 104 % of control

CC(=O)c1sc2sc(C(C)=O)c(NC(=S)Nc3ccccc3Cl)c2c1NC(=S)Nc1ccccc1Cl
inactive: [6] 97 % of control | dose: 200.0 mg/kg/injection, schedule: Q01DX009 (ip), vehicle: Klucel (hydroxypropylcellulose) (HPC) 96 % of control | dose: 400.0 mg/kg/injection, schedule: Q01DX009 (ip), vehicle: Klucel (hydroxypropylcellulose) (HPC) 94 % of control

CCCCC[CH2][Sn](=[O])[CH2]CCCCC
inactive: dose: 100.0 mg/kg/injection, schedule: Q01DX001 (ip), vehicle: saline with Tween-80 105 % of control | dose: 200.0 mg/kg/injection, schedule: Q01DX001 (ip), vehicle: saline with Tween-80 100 % of control | dose: 400.0 mg/kg/injection, schedule: Q01DX001 (ip), vehicle: saline with Tween-80 103 % of control

CCN(CC)CCOc1ccccc1C(=O)CCc1ccccc1
inactive: dose: 12.5 mg/kg/injection, schedule: Q01DX009 (ip), vehicle: saline 93 % of control | dose: 25.0 mg/kg/injection, schedule: Q01DX009 (ip), vehicle: saline 93 % of control | dose: 25.0 mg/kg/injection, schedule: Q04DX003 (ip), vehicle: saline 99 % of control | dose: 50.0 mg/kg/injection, schedule: Q01DX009 (ip), vehicle: saline 100 % of control | dose: 50.0 mg/kg/injection, schedule: Q04DX003 (ip), vehicle: saline 97 % of control | [2] 102 % of control

CC1(C)c2ccccc2C(C)(C(Cl)(Cl)Cl)c2ccc(Cl)cc21 (configuration not stated)
inactive: dose: 50.0 mg/kg/injection, schedule: Q01DX001 (ip), vehicle: carboxymethylcellulose (CMC) 98 % of control | dose: 100.0 mg/kg/injection, schedule: Q01DX001 (ip), vehicle: carboxymethylcellulose (CMC) 90 % of control | [1] 92 % of control | dose: 200.0 mg/kg/injection, schedule: Q01DX001 (ip), vehicle: carboxymethylcellulose (CMC) 93 % of control | [3] 95 % of control | dose: 400.0 mg/kg/injection, schedule: Q01DX001 (ip), vehicle: carboxymethylcellulose (CMC) 95 % of control | [4] 97 % of control

O=C(C(=O)N1CC1)c1c[nH]c2ccccc12
inactive: dose: 25.0 mg/kg/injection, schedule: Q04DX003 (ip), vehicle: saline with Tween-80 95 % of control | dose: 50.0 mg/kg/injection, schedule: Q04DX003 (ip), vehicle: saline with Tween-80 91 % of control | [11] 95 % of control

CCCCCCCCCCCCC(CCCCCCCCCCCC)c1ccccc1
inactive: [5] 112 % of control | [8] 100 % of control | [10] 96 % of control

O=C1OCC(O)=C1Cc1ccccc1
inactive: dose: 100.0 mg/kg/injection, schedule: Q01DX001 (ip), vehicle: saline 101 % of control | dose: 200.0 mg/kg/injection, schedule: Q01DX001 (ip), vehicle: saline 89 % of control | dose: 400.0 mg/kg/injection, schedule: Q01DX001 (ip), vehicle: saline 94 % of control

O=[N+]([O-])c1cc(Cl)ccc1S(=O)(=O)F
inactive: dose: 100.0 mg/kg/injection, schedule: Q04DX003 (ip), vehicle: carboxymethylcellulose (CMC) 103 % of control | dose: 200.0 mg/kg/injection, schedule: Q04DX003 (ip), vehicle: carboxymethylcellulose (CMC) 94 % of control
